Here are results for 2 compounds from patent US8357694B2, “Substituted 5,6-dihydro-6-phenylbenzo[F]isoquinolin-2-amine compounds” (ArQule, Inc., priority 2008, dated 2013).

Data set [1] deals with SNU-16. The data set can be described thus: combination cytotoxicity, SNU-16. It counts as cell-based. Particulars: in combination with (3R,4R)-3-(5,6-dihydro-4H-pyrrolo[3,2,1-ij]quinolin-1-yl)-4-(1H-indol-3-yl)pyrrolidine-2,5-dione. The text has this:
(§1) The combination data of (R)-6-(2-fluorophenyl)-N-(3-(2-(4-(2-methoxyethyl)piperazin-1-yl)ethyl)phenyl)-5,6-dihydrobenzo[h]quinazolin-2-amine with a kinase inhibitor (3R,4R)-3-(5,6-dihydro-4H-pyrrolo[3,2,1-ij]quinolin-1-yl)-4-(1H-indol-3-yl)pyrrolidine-2,5-dione is shown in Table 28. The identity and tissue origin of cancer cell lines are indicated.

Another data set deals with LS174T. As to the kind of experiment: combination cytotoxicity, LS174T. In kind it is cell-based. Particulars: in combination with (3R,4R)-3-(5,6-dihydro-4H-pyrrolo[3,2,1-ij]quinolin-1-yl)-4-(1H-indol-3-yl)pyrrolidine-2,5-dione.
Text: as §1

The test system of a further data set is A549. The data set can be described thus: combination cytotoxicity, A549. Particulars: in combination with (3R,4R)-3-(5,6-dihydro-4H-pyrrolo[3,2,1-ij]quinolin-1-yl)-4-(1H-indol-3-yl)pyrrolidine-2,5-dione. In kind it is cell-based.
Text: as §1

The next data set relates to Kato III cells. The data set can be described thus: cell cycle profile by FACS analyses. In kind it is cell-based. How it is done: Kato III cells were treated with example 159, or FGFR2 siRNA. Cell cycle profiles were assessed by FACS analyses (FIG. 3).
In general terms: In flow cytometry, cells or beads pass a laser one at a time.

Data set [2] deals with SNU-16, Ba/F3-FGFR2 or Ba/F3 INSR tumors. The data set can be described thus: tumor growth in xenograft models. It counts as in vivo. Conditions: subcutaneous tumors in nude mice; orally dosed once daily. The procedure:
(A) Tumor from cancer cells SNU-16, Ba/F3-FGFR2 or Ba/F3 INSR were established subcutaneously in nude mice. Tumor growth in nude mice orally dosed with the indicated dose of example 159, or vehicle control was determined. All regimens were administered once daily for the indicated number of days. Tumor sizes were evaluated periodically during treatment and are represented as the mean of tumor volume in mm3±SEM (n=10) (FIGS. 4A-C). Phosphorylation of FGFR2 (D) or ERK (E) was assessed for cells from tumors harvested at the indicated time points after a single oral administration of 250 mg/kg of Example 159 by immunohistochemistry.

The test system of a further data set is THP-1. As to the kind of experiment: combination cytotoxicity, THP-1. In kind it is cell-based. Particulars: in combination with (3R,4R)-3-(5,6-dihydro-4H-pyrrolo[3,2,1-ij]quinolin-1-yl)-4-(1H-indol-3-yl)pyrrolidine-2,5-dione.
Text: as §1

In another data set the test system is CALU-6. As to the kind of experiment: combination cytotoxicity, CALU-6. In kind it is cell-based. Conditions: in combination with (3R,4R)-3-(5,6-dihydro-4H-pyrrolo[3,2,1-ij]quinolin-1-yl)-4-(1H-indol-3-yl)pyrrolidine-2,5-dione.
Text: as §1

For a further data set, the system named is RT112. The data set can be described thus: combination cytotoxicity, RT112. It counts as cell-based. Conditions: in combination with (3R,4R)-3-(5,6-dihydro-4H-pyrrolo[3,2,1-ij]quinolin-1-yl)-4-(1H-indol-3-yl)pyrrolidine-2,5-dione.
Text: as §1

In another data set the test system is DU4475. The data set can be described thus: combination cytotoxicity, DU4475. In kind it is cell-based. Particulars: in combination with (3R,4R)-3-(5,6-dihydro-4H-pyrrolo[3,2,1-ij]quinolin-1-yl)-4-(1H-indol-3-yl)pyrrolidine-2,5-dione.
Text: as §1

A further data set has as its system RT4. The data set can be described thus: combination cytotoxicity, RT4. Particulars: in combination with (3R,4R)-3-(5,6-dihydro-4H-pyrrolo[3,2,1-ij]quinolin-1-yl)-4-(1H-indol-3-yl)pyrrolidine-2,5-dione. It counts as cell-based.
Text: as §1

The subject of a further data set is CAKI-2. As to the kind of experiment: combination cytotoxicity, CAKI-2. It counts as cell-based. Particulars: in combination with (3R,4R)-3-(5,6-dihydro-4H-pyrrolo[3,2,1-ij]quinolin-1-yl)-4-(1H-indol-3-yl)pyrrolidine-2,5-dione.
Text: as §1

The subject of a further data set is FGFR2 in SNU-16. The data set can be described thus: FGFR2 phosphorylation by immunoblotting, SNU-16. In kind it is cell-based. Conditions: 0.3 μM to 10 μM for 2 h, then KGF stimulation for 15 min. The procedure:
(§2) Cells whose growth rely on FGFR2 as determined in Example 585 such as KATO III and SNU-16, were treated with increasing concentration of example 159, from 0.3 μM to 10 μM for 2 h, followed by stimulation with […] of KGF for 15 min.
For orientation: A western blot detects proteins with antibodies after separation by electrophoresis.

The next data set deals with FGFR2 in KATO III. As to the kind of experiment: FGFR2 phosphorylation by immunoblotting, KATO III. It counts as cell-based. Conditions: 0.3 μM to 10 μM for 2 h, then KGF stimulation for 15 min. How it is done: as §2
Another data set relates to Ba/F3 parental cells. The data set can be described thus: MTS assay, Ba/F3 parental. Conditions: Mus musculus, BaF3, read-out: MTS IC50.
The subject of data set [3] is KATO III. As to the kind of experiment: in vitro PD assay, KATO III. It counts as cell-based. Particulars: Homo sapiens.
Data set [4] concerns SNU-16. The data set can be described thus: MTS assay, SNU-16. It counts as cell-based. Conditions: Homo sapiens, SNU-16, SNU-16; read-out: MTS IC50. On the technique in general: Tetrazolium assays rely on reduction of a dye to a coloured formazan, in cell work by metabolically active cells.
Experimental: (§3) Cells were maintained at 37° C., 5% CO2 in DMEM media supplemented with 1% fetal bovine serum, penicillin/streptomycin and fungizone (Invitrogen). Cells were seeded into 96-well tissue culture plates at 3000 per well and cultured at 37° C. for 18 hours. Test compounds were dissolved and diluted to 300× in DMSO then diluted 1:40 in DMEM.
Data set [5] concerns KATO III. The data set can be described thus: MTS assay, KATO III. In kind it is cell-based. Conditions: Homo sapiens, read-out: MTS IC50.
Experimental: as §3
For data set [6], the system named is SNU-16. The data set can be described thus: in vitro PD assay, SNU-16. It counts as cell-based. Conditions: Homo sapiens.
For the next data set, the target named is T1, FGFR2 kinase (Homo sapiens, UniProt P21802, N549H).
T1 construct: purchased Millipore 14-742
The data set can be described thus: fluorescent ELISA FGFR2 kinase assay (biochemical). How it is done: The enzymatic assays described herein are conducted according to the following procedures from commercially available reagents. In one, non limiting, example, a fluorescent ELISA assay is used to identify and characterize inhibitors of FGFR2 kinase as described herein. This heterogeneous assay utilizes a biotinylated peptide with a tyrosine motif as a substrate and an anti-phospho-tyrosine antibody to measure phosphorylation of the substrate. […] The reaction is incubated for 60 minutes. As the reaction proceeds, FGFR2 phosphorylates tyrosines in the peptide. […] Peptides are captured for 30 minutes at room temperature, the phosphorylation of peptides continues during this phase. The reaction is stopped by washing the streptavidin-coated plate 6 times with TBST. […] Unbound anti-phospho-tyrosine antibody is removed by washing the streptavidin-coated plate 6 times with TBST. […] Unbound secondary antibody is removed by washing the streptavidin-coated plate 6 times with TBST.

pIC50: −log10 of the molar value. Values joined by “and” are separate entries in the source; they are usually repeats but may differ in a detail not shown here. Equal entries are not always repeated. Where two headings read alike, the source gives them in different places.

T1 sequence (P21802 456-770 N549H limits assumed): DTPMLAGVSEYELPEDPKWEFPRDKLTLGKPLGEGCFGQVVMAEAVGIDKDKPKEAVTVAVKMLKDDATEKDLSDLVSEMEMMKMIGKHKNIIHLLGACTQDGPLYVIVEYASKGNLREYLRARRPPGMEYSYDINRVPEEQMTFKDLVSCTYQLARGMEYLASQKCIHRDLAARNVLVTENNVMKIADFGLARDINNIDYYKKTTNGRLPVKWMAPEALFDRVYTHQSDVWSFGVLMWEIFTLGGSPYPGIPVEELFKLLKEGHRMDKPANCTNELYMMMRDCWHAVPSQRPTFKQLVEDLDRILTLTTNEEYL
Experimental for Ba/F3 parental cells: as §3

As to `COCCN1CCN(CCc2cccc(Nc3ncc4c(n3)-c3ccccc3[C@H](c3ccccc3F)C4)c2)CC1` [(R)-6-(2-fluorophenyl)-N-(3-(2-(4-(2-methoxyethyl)piperazin-] [(R)-6-(2-fluorophenyl)-N-(3-(2-(4-(2-methoxyethyl)piperazin-1-yl)ethyl)phenyl)-5,6-dihydrobenzo[h]quinazolin-2-amine], the combination cytotoxicity entry in the data set with SNU-16 [1], with LS174T, in the data set with A549, with THP-1, in the data set with CALU-6 and in the data set on RT112 was “additive cytotoxicity” each time. The combination cytotoxicity result in the data set on DU4475, in the data set with RT4 and with CAKI-2 was “additive cytotoxicity” throughout. For the same compound, the cell cycle profile entry with Kato III cells is “arrest of KATO III cells in G1 phase”. In addition, the “tumor growth in xenograft models” value in data set [2] is on record as “inhibition of tumor growth”. The “amount of phosphorylated FGFR2” value in the data set with FGFR2 in SNU-16 and in the data set on FGFR2 in KATO III was “inhibition of autophosphorylation of FGFR2” throughout.
Usually pIC50 stands for the negative decadic logarithm of the IC50, by convention in mol/L. Usually IC50 stands for the point on the concentration scale where inhibition reaches its midpoint. With `COCCN1CCN(CCc2cccc(Nc3ncc4c(n3)-c3ccccc3[C@H](c3ccccc3F)C4)c2)CC1` [Example 159, (R)-6-(2-fluorophenyl)-N-(3-(2-(4-(2-methoxyethyl)piperazin-1-yl)ethyl)phenyl)-5,6-dihydrobenzo[h]quinazolin-2-amine], the pIC50 in the data set on Ba/F3 parental cells is 4.15; with KATO III [3], 7.00; with SNU-16 [4], 6.00; in the data set on KATO III [5], 7.00; with SNU-16 [6] it was 6.70; on FGFR2 kinase (read-out: Biochemical IC50) it was 9.40. The IC50 at FGFR2 kinase (FGFR2 (N549H), read-out: Biochemical data (IC50-μM) FGFR2 (N549H)) was 0.00714 µM and 0.0523 µM.
